This note sets out measurements from patent publication US8906852B2 (MethylGene Inc., priority 2010, dated 2014).

Some results are limits rather than exact numbers.

T1 sequence (P35968 806-1356): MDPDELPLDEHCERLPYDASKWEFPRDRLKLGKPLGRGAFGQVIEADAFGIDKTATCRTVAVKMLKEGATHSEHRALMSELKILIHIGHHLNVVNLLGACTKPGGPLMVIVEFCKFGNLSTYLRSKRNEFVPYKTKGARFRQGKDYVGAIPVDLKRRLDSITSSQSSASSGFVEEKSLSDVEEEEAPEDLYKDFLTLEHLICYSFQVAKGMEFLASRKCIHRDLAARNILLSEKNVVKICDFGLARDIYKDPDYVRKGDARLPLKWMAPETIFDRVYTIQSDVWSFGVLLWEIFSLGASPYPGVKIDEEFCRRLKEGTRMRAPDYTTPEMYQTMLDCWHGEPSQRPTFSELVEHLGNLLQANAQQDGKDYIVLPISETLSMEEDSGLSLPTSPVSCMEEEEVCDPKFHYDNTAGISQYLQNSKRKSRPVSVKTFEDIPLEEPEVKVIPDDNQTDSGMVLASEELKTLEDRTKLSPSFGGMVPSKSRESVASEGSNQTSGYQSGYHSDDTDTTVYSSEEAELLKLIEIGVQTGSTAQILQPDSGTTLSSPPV

This assay has as its target T1, VEGFR/KDR (Homo sapiens, UniProt P35968).
T1 construct: made in house; host or cells: Sf9 cells (Spodoptera frugiperda), baculovirus
Nature of the assay: VEGFR/KDR kinase inhibition, DELFIA assay. It is filed as biochemical. Conditions: ATP 0.6 uM (2x Km), enzyme 5 nM. Summed up:
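DELFIA time-resolved fluorescence readout using Europium-tagged anti-phosphotyrosine antibody after EDTA stop. Kinase reaction on plate-bound poly(Glu4,Tyr) ran 10-30 min at 30° C with 5 nM enzyme and 0.6 uM ATP (2× Km), following 4 min on-ice pre-incubation with compound; IC50 over a concentration range.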
In the case of `O=C(O)CCC1CCN(Cc2ccc(-c3cc4nccc(Oc5ccc(NC(=O)NC6CC6)cc5F)c4s3)nc2)CC1` [Compound 330, 3-(1-((6-(7-(4-(3-cyclopropylureido)-2-fluorophenoxy)thieno[3,2-b]pyridin-2-yl)pyridin-3-yl)methyl)piperidin-4-yl)propanoic acid], the IC50 was < 50 nM. On to `Cn1c(C(=O)N2CCCC2)cnc1-c1cc2nccc(Oc3ccc(NC(=O)NC4CC4)cc3F)c2s1` [Compound 222, 1-cyclopropyl-3-(3-fluoro-4-(2-(1-methyl-5-(pyrrolidine-1-carbonyl)-1H-imidazol-2-yl)thieno[3,2-b]pyridin-7-yloxy)phenyl)urea], for which the IC50 was < 50 nM. With `CS(=O)(=O)c1cccc(NC(=O)Nc2ccc(Oc3ccnc4cc(-c5ccc(CN6CCCC6=O)cn5)sc34)c(F)c2)c1` [Compound 105] the figure was < 50 nM. As to `COCCN(Cc1ccc(-c2cc3nccc(Oc4ccc(NC(=O)NC5CC5)c(Cl)c4)c3s2)nc1)C(C)=O` [Compound 116, N-((6-(7-(3-chloro-4-(3-cyclopropylureido)phenoxy)thieno[3,2-b]pyridin-2-yl)pyridin-3-yl)methyl)-N-(2-methoxyethyl)acetamide], the IC50 was < 50 nM. Next, `CCNC(=O)N(CCOC)CCc1ccc(-c2cc3nccc(Oc4ccc(NC(=O)NC5CC5)cc4F)c3s2)nc1` [Compound 38, N-[3-(2-(6-(7-(4-(3-cyclopropylureido)-2-fluorophenoxy)-thieno[3,2-b]-pyridin-2-yl)pyridin-3-yl)ethyl)]-N-(1-ethyl)-N-[3-(2-methoxyethyl)]urea]: < 50 nM; `CCNC(=O)N1CCN(C(=O)Cn2cc(-c3cc4nccc(Oc5ccc(NC(=O)NC6CC6)cc5F)c4s3)nn2)CC1` [Compound 394]: < 50 nM. With `COCCN(Cc1ccc(-c2cc3nccc(Oc4ccc(NC(=O)NC5CC5)cc4F)c3s2)cc1)C(=O)CO` [Compound 115-A, N-(4-(7-(4-(3-cyclopropylureido)-2-fluorophenoxy)thieno[3,2-b]pyridin-2-yl)benzyl)-2-hydroxy-N-(2-methoxyethyl)acetamide] the figure was < 50 nM; with `O=C(Nc1ccc(Oc2ccnc3cc(-c4ccc(CN5CCCC5=O)cn4)sc23)c(F)c1F)NC1CC1` [Compound 169, 1-cyclopropyl-3-(2,3-difluoro-4-(2-(5-((2-oxopyrrolidin-1-yl)methyl)pyridin-2-yl)thieno[3,2-b]pyridin-7-yloxy)phenyl)urea], < 50 nM; with `CN1CCN(CCNC(=O)c2cc3nccc(Oc4ccc(NC(=O)NC5CC5)cc4F)c3s2)CC1` [Compound 440], ≥ 250 nM.

Turning to `CCNC(=O)N(C)C1CCN(C(=O)c2ccc(-c3cc4nccc(Oc5ccc(NC(=O)NC6CC6)cc5F)c4s3)nc2)CC1` [Compound 406], the 50% inhibitory concentration (IC50) is < 50 nM. As for `CNC(=O)NC1CCN(Cc2ccc(-c3cc4nccc(Oc5ccc(NC(=O)NC6CC6)cc5F)c4s3)nc2)CC1` [Compound 352], the IC50 is < 50 nM.

Consider `COCCN(Cc1ccc(-c2cc3nccc(Oc4ccc(NC(=O)NC5CC5)c(F)c4F)c3s2)nc1)C(=O)CO` [Compound 259-A, N-((6-(7-(4-(3-cyclopropylureido)-2,3-difluorophenoxy)thieno[3,2-d]pyridin-2-yl)pyridin-3-yl)methyl)-2-hydroxy-N-(2-methoxyethyl)acetamide], for which the IC50 was < 50 nM. With `CCOC(=O)C1CCCN(C(=O)c2cc3nccc(Oc4ccc(NC(=O)NC5CC5)cc4F)c3s2)C1` (stereo not shown) [Compound 458] the figure was 50 to 100 nM; with `CN(C[C@@H](O)[C@H](O)[C@@H](O)[C@@H](O)CO)C(=O)c1ccc(-c2cc3nccc(Oc4ccc(NC(=O)NC5CC5)cc4F)c3s2)nc1` (stereo in doubt) [Compound 244, 6-(7-(4-(3-cyclopropylureido)-2-fluorophenoxy)thieno[3,2-b]pyridin-2-yl)-N-methyl-N-((2R,3S,4S,5S)-2,3,4,5,6-pentahydroxyhexyl)nicotinamide], < 50 nM. With `CN(C)CCNC(=O)C1CN(Cc2ccc(-c3cc4nccc(Oc5ccc(NC(=O)NC6CC6)cc5F)c4s3)nc2)C1` [Compound 490, 1-((6-(7-(4-(3-cyclopropylureido)-2-fluorophenoxy)thieno[3,2-b]pyridin-2-yl)pyridin-3-yl)methyl)-N-(2-(dimethylamino)ethyl)azetidine-3-carboxamide], the IC50 is < 50 nM. Next, `Cc1cc(NCc2ccc(-c3cc4nccc(Oc5ccc(NC(=O)NC6CC6)cc5F)c4s3)nc2)nn1C` [Compound 335, 1-cyclopropyl-3-(4-(2-(5-((1,5-dimethyl-1H-pyrazol-3-ylamino)methyl)pyridin-2-yl)thieno[3,2-b]pyridin-7-yloxy)-3-fluorophenyl)urea]: < 50 nM; `O=C(O)CCN1CCN(Cc2ccc(-c3cc4nccc(Oc5ccc(NC(=O)NC6CC6)cc5F)c4s3)nc2)CC1` [Compound 70, 3-(4-((6-(7-(4-(3-cyclopropylureido)-2-fluorophenoxy)thieno[3,2-b]pyridin-2-yl)pyridin-3-yl)methyl)piperazin-1-yl)propanoic acid]: < 50 nM. Next, `CCNC(=O)NC1CN(Cc2ccc(-c3cc4nccc(Oc5ccc(NC(=O)NC6CC6)cc5F)c4s3)nc2)C1` [Compound 408]: < 50 nM; `N[C@H]1CCN(Cc2ccc(-c3cc4nccc(Oc5ccc(NC(=O)NC6CC6)cc5F)c4s3)nc2)C1` [Compound 495, (S)-1-(4-(2-(5-((3-aminopyrrolidin-1-yl)methyl)pyridin-2-yl)thieno[3,2-b]-pyridin-7-yloxy)-3-fluorophenyl)-3-cyclopropylurea]: < 50 nM. As for `O=C(Nc1ccc(Oc2ccnc3cc(-c4ccc(CN5CC[C@H](O)C5)cn4)sc23)c(F)c1)NC1CC1` [Compound 52, (S)-1-cyclopropyl-3-(3-fluoro-4-(2-(5-((3-hydroxypyrrolidin-1-yl)methyl)pyridin-2-yl)thieno[3,2-b]-pyridin-7-yloxy)phenyl)urea], the IC50 is < 50 nM. With `O=C(Nc1ccc(Oc2ccnc3cc(C(=O)N4CCCCC4)sc23)c(F)c1)NC1CC1` [Compound 447] the figure was < 50 nM; with `O=C(Nc1ccc(Oc2ccnc3cc(-c4ccc(C(=O)N5CCN(CCN6CCOCC6)CC5)cn4)sc23)c(F)c1)NC1CC1` [Compound 231, 1-cyclopropyl-3-(3-fluoro-4-(2-(5-(4-(2-morpholinoethyl)piperazine-1-carbonyl)pyridin-2-yl)thieno[3,2-b]pyridin-7-yloxy)phenyl)urea], < 50 nM; with `C=CC(=O)N1CCN(Cc2ccc(-c3cc4nccc(Oc5ccc(NC(=O)NC6CC6)cc5F)c4s3)nc2)CC1(C)C` [Compound 499, 1-(4-(2-(5-((4-acryloyl-3,3-dimethylpiperazin-1-yl)methyl)pyridin-2-yl)thieno[3,2-b]pyridin-7-yloxy)-3-fluorophenyl)-3-cyclopropylurea], < 50 nM. With `O=C(Nc1ccc(Oc2ccnc3cc(-c4ccc(CN5CCC(F)(F)C5)cn4)sc23)c(F)c1)NC1CC1` [Compound 315, 1-cyclopropyl-3-(4-(2-(5-((3,3-difluoropyrrolidin-1-yl)methyl)pyridin-2-yl)thieno[3,2-b]pyridin-7-yloxy)-3-fluorophenyl)urea] the figure was < 50 nM. Next, `O=C(Nc1ccc(Oc2ccnc3cc(-c4ccc(CN5CCNCC5=O)cn4)sc23)c(F)c1)NC1CC1` [Compound 72]: < 50 nM.
